Assay [1] concerns the target T1, SMYD3 (Homo sapiens (Human), UniProt Q9H7B4). Kind of assay: SMYD3 biochemical assay (SPA, 3H-SAM methylation of MEKK2 protein substrate). Summed up:
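Enzyme: untagged full-length human SMYD3 from E. coli; substrate GST-tagged MEKK2 from insect cells. Buffer 25 mM Tris-Cl pH 8.0, 1 mM TCEP, 0.005% BSG/Tween 20. 30 min compound–enzyme preincubation at RT; 3H-SAM/MEKK2 start; stop with cold SAM (100 uM final); SPA readout in cpm.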

Assay [2] concerns the target T1, SMYD3. Nature of the assay: SMYD3 cell assay (Trimethyl-MEKK2 In-Cell Western in 293T/17 cells). Format: cell-based. The source says:
Trimethyl-MEKK2-in-Cell Western Assay
MEM/Glutamax medium, Optimem Reduced Serum medium, penicillin-streptomycin, 0.05% trypsin and 1×D-PBS were purchased from Life Technologies, Grand Island, N.Y., USA. PBS-10× was purchased from Ambion, Life Technologies, Grand Island, N.Y., USA. PBS with Tween 20 (PBST (10×)) was purchased from KPL, Gaithersburg, Md., USA. Tet System FBS-approved FBS US Source was purchased from Clontech, Mountain View, Calif., USA. Odyssey blocking buffer, 800CW goat anti-rabbit IgG (H+L) antibody, 680CW Goat anti-mouse IgG (H+L) and Licor Odyssey infrared scanner were purchased from Licor Biosciences, Lincoln, Nebr., USA. Tri-methyl-Lysine [A260]-MEKK2 antibody, MEKK2 and SMYD3 plasmids were made at Epizyme. Anti-flag monoclonal mouse antibody was purchased from Sigma, St. Louis, Mo., USA. Methanol was purchased from VWR, Franklin, Mass., USA. 10% Tween 20 was purchased from KPL, Inc., Gaithersburg, Md., USA. Fugene was purchased from Promega, Madison, Wis., USA. The Biotek ELx405 was purchased from BioTek, Winooski, Vt., USA. The multidrop combi was purchased from Thermo Scientific, Waltham, Mass., USA.
Cell Treatment, in Cell Western (ICW) for Detection of Trimethyl-Lysine-MEKK2 and MEKK2.
Plasmids were prepared for delivery to cells by first mixing 1350 μL Opti-MEM with Fugene (81 μL) in a sterile Eppendorf and incubated for five minutes at room temperature (RT). […] Entire volume of Opti-MEM/Fugene mixture was then added to a microfuge tube containing DNA plasmid, mixed and then incubated×15 minutes at RT. […] Medium was then removed, and cells were washed once with PBS in the flask. Trypsin 0.05% (3 mL) was added and cells incubated for three minutes. Room temperature MEM+10% Tet system FBS was added and cells were mixed gently, and counted using the Vi-cell. Cells were seeded at 100,000 cells/mL in 50 μL MEM/10% Tet FBS/Pen/Strep to a 384 well black/clear poly-D-lysine coated plate containing test agent diluted in DMSO. The final top concentration of test compound was 40 μM. […] Plates were incubated×30 minutes at RT in low-airflow area, followed by incubation at 37° C. under 5% CO2 for 24 hours. Medium was aspirated from all wells of assay plates prior to fixation and permeabilization with ice cold (−20° C.) methanol (90 μL/well) for ten minutes. Plates were rinsed with PBS three times on BioTek ELx405. PBS was removed with a final aspiration, and Odyssey blocking buffer (50 μL/well) was added to each well and incubated for one hour at RT. Primary antibody solution was prepared (anti-trimethyl-MEKK2 at 1:600 dilution plus mouse anti-flag antibody at 1:10,000 dilution in diluent (Odyssey Blocking buffer+0.1% Tween 20)) and 20 μL per well was dispensed using the Multidrop Combi. Assay plates were then sealed with foil, and incubated overnight at 4° C. Plates were washed five times with PBS-Tween (1×) on Biotek ELx405 and blotted on paper towel to remove excess reagent.
First, the ratio for each well was determined by:
Each plate included fourteen control wells of DMSO only treatment (Minimum Inhibition) as well as fourteen control wells for maximum inhibition (Background). The average of the ratio values for each control type was calculated and used to determine the percent inhibition for each test well in the plate. Reference compound was serially diluted two-fold in DMSO for a total of nine test concentrations, beginning at 40 μM.
Percent inhibition was calculated (below).
Non-linear regression curves were generated to calculate the IC50 and dose-response relationship using triplicate wells per concentration of compound.

Setting [3] is: read-out: SMYD3 Biochem IC50 (μM)*.
[4] abbreviates: 293T/17 cells, read-out: SMYD3 Cell IC50 (μM)*.
The mark [5] stands for this setting: Table 2A, read-out: SMYD3 Biochem IC50.
Setting [6] is: Table 2A, read-out: SMYD3 Cell IC50.

Counter-ions that a name gives are not always drawn.

T1 sequence (Q9H7B4 whole entry): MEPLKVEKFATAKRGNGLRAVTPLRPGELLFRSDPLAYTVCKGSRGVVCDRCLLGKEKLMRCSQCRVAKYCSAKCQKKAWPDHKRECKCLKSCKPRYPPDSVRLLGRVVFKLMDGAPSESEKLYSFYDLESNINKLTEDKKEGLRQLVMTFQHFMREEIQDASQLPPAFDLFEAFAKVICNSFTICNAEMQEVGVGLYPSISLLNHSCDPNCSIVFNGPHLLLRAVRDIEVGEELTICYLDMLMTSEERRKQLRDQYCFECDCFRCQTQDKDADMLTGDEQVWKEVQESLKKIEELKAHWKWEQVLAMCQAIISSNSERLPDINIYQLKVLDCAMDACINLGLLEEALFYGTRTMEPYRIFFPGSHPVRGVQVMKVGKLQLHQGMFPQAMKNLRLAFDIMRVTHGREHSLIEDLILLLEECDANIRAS

Consider `C[C@H]1C[C@@H](NC(=O)c2cc(C3CC3)on2)CCN1S(=O)(=O)c1ccc(NCCN2CCOCC2)nc1` [Cpd. No. 458, 5-cyclopropyl-N-((2S,4S)-2-methyl-1-(6-(2-morpholinoethylamino)pyridin-3-ylsulfonyl)piperidin-4-yl)isoxazole-3-carboxamide dihydrochloride], for which the IC50 is 0.132 µM at SMYD3 [1] (setting [3]) and 0.581 µM on SMYD3 [2] (setting [4]).

Consider `NCCCS(=O)(=O)N1[C@@H]2CC[C@H]1C[C@@H](NC(=O)c1cc(C3CC3)on1)C2` [Cpd. No. 485, N-((1S,3r,5R)-8-(3-aminopropylsulfonyl)-8-aza-bicyclo[3.2.1]octan-3-yl)-5-cyclopropylisoxazole-3-carboxamide], for which the concentration for half-maximal inhibition (IC50) on SMYD3 [1] (setting [3]) stood at 0.00507 µM; on SMYD3 [2] (setting [4]), 0.129 µM.

With `C[C@H]1C[C@@H](NC(=O)c2cc(C3CC3)on2)CCN1S(=O)(=O)CCCNCc1ccccc1` [Cpd. No. 500, N-((2S,4S)-1-(3-(benzylamino)propylsulfonyl)-2-methylpiperidin-4-yl)-5-cyclopropylisoxazole-3-carboxamide], the IC50 is 0.00813 µM on SMYD3 [1] (Table 1A, IC50 values are an average of n = 1 to n = 50, read-out: SMYD3 Biochem IC50) and 0.106 µM at SMYD3 [2] (Table 1A, IC50 values are an average of n = 1 to n = 50, read-out: SMYD3 Cell IC50).

For the compound `O=C(N[C@H]1C[C@H]2CC[C@@H](C1)N2S(=O)(=O)CC1CCN(CCCC(F)(F)F)CC1)c1cc(C2CC2)on1` [Cpd. No. 528, 5-cyclopropyl-N-[(1R,3r,5S)-8-([[1-(4,4,4-trifluorobutyl)piperidin-4-yl]methane]sulfonyl)-8-azabicyclo[3.2.1]octan-3-yl]-1,2-oxazole-3-carboxamide], the values for the IC50 at SMYD3 [1] (setting [5]) and on SMYD3 [2] (setting [6]) were 0.0006 µM and 0.0231 µM, respectively.

On to `C[C@H]1C[C@@H](NC(=O)c2cc(C3CC3)on2)CCN1S(=O)(=O)N1CCC(N)CC1` [Cpd. No. 529, N-((2S,4S)-1-(4-aminopiperidin-1-ylsulfonyl)-2-methylpiperidin-4-yl)-5-cyclopropylisoxazole-3-carboxamide trifluoroacetic acid], for which the figures for the IC50 at SMYD3 [1] (setting [5]) and on SMYD3 [2] (setting [6]) were 0.0008 µM and 0.0152 µM, respectively.

Turning to `NC1CCN(S(=O)(=O)N2[C@@H]3CC[C@H]2C[C@@H](NC(=O)c2cc(C4CC4)on2)C3)CC1` [Cpd. No. 532, N-((1R,3r,5S)-8-(4-aminopiperidin-1-ylsulfonyl)-8-aza-bicyclo[3.2.1]octan-3-yl)-5-cyclopropylisoxazole-3-carboxamide hydrochloride], the figures for the IC50 on SMYD3 [1] (setting [5]) and on SMYD3 [2] (setting [6]) were 0.0009 µM and 0.0214 µM, respectively.

Take `C[C@H]1C[C@@H](NC(=O)c2cc(C3CC3)on2)CCN1S(=O)(=O)c1ccc(C(C)(C)N)cc1` [Cpd. No. 541, N-((2S,4S)-1-(4-(2-aminopropan-2-yl)phenylsulfonyl)-2-methylpiperidin-4-yl)-5-cyclopropylisoxazole-3-carboxamide]: the results for the IC50 on SMYD3 [1] (setting [5]) and on SMYD3 [2] (setting [6]) were 0.0014 µM and 0.0259 µM, respectively.

As for `O=C(N[C@H]1C[C@H]2CC[C@@H](C1)N2S(=O)(=O)CC1CCNCC1)c1cc(C2CC2)on1` [Cpd. No. 543, 5-cyclopropyl-N-((1R,3r,5S)-8-(piperidin-4-ylmethylsulfonyl)-8-aza-bicyclo [3.2.1]octan-3-yl) isoxazole-3-carboxamide], the IC50 at SMYD3 [1] (setting [5]) amounted to 0.0018 µM; at SMYD3 [2] (setting [6]), 0.0445 µM.

For `O=C(N[C@H]1C[C@H]2CC[C@@H](C1)N2S(=O)(=O)N1CC2(CCNCC2)C1)c1cc(C2CC2)on1` [Cpd. No. 559, N-((1R,3r,5S)-8-(2,7-diazaspiro[3.5]nonan-2-ylsulfonyl)-8-azabicyclo[3.2.1]octan-3-yl)-5-cyclopropylisoxazole-3-carboxamide 2,2,2-trifluoroacetate], the IC50 on SMYD3 [1] (setting [5]) came out at 0.0047 µM; on SMYD3 [2] (setting [6]), 0.0319 µM.

Take `CCc1cc(C(=O)N[C@H]2C[C@H]3CC[C@@H](C2)N3S(=O)(=O)CC2CCNCC2)no1` [Cpd. No. 562, 5-ethyl-N-((1R,3r,5S)-8-(piperidin-4-ylmethylsulfonyl)-8-aza-bicyclo[3.2.1]octan-3-yl)isoxazole-3-carboxamide]: the IC50 at SMYD3 [1] (setting [5]) stood at 0.0052 µM; on SMYD3 [2] (setting [6]), 0.0615 µM.

Source of the values: patent US10577363B2, “Substituted piperidine compounds” (EPIZYME, INC., priority 2014, dated 2020).
